Laboratory results published in patent US6150414A, “Compositions and methods for treating viral infections” (priority 1992, dated 2000).
Where “and” joins values, the source holds several entries; their conditions need not be identical. Equal entries are not always repeated.

Tests used:
[1] = molecular target: T1, Radiation Leukemia Virus reverse transcriptase (Radiation murine leukemia virus, UniProt P11227); experiment: Radiation Leukemia Virus reverse transcriptase assay, supernatants from infected AQR cells (Examples 4 and 9); assay type: biochemical; details: 0.5 h, Table VIII
T1 construct: the reverse transcriptase of Radiation Leukemia Virus; endogenous in cells
Protocol: (§1) Supernatants (10 ml/tube) from B10.T(6R) cells (Meruelo et al. J. Exp. Med. 147: 470-487, 1978) chronically infected with Radiation Leukemia Virus (RadLV) were obtained by centrifugation of cells in culture at 4° C., 3500 rpm for 15 minutes. The top 2/3 of the supernatant were removed and aliquots were incubated for 30 minutes on ice with the indicated amounts of hypericin or protohypericin. […] Thereafter, supernatants were centrifuged at 100,000×g using a TI70 rotor (Beckman Instruments) for 1 hour at 4° C. The pellet was […] and analyzed for reverse transcriptase activity as follows.
(§2) The reverse transcriptase assay was performed in a volume of 100 microliters containing the following components:
The antiviral activity of HHA was tested using AQR (Bach and Meruelo, J. Exp. Med. 160:270-285, 1984) cells chronically infected with Radiation Leukemia Virus in the reverse transcriptase assay as described in Example 3 above.
The assays were conducted using the same procedure as in Example 3 above, using supernatants from infected AQR cells.

[2] = tested on: Friend Virus; experiment: Friend Virus-induced splenomegaly, WIS compounds (Example 8); assay type: in vivo, mice; set-up: Actual Spleen Weight / Average Spleen Weight: unit not given here; details: Table VII; for Actual Spleen Weight: single animal
Protocol: The effects of compositions according to the present invention on the increase in spleen size (splenomegaly) of BALB/c mice (Jackson Labs, Bar Harbor, ME) was examined. In these experiments, the virus (10^6 focus forming units--FFU) was inoculated intravenously and 100 micrograms of the compounds indicated in Table II were administered to the mice intraperitoneally 24 hours later. Each compound was administered once to two mice. The animals were sacrificed ten days later and their spleens weighed.
As used in Table II (and subsequent Tables of this Example l(a) and (b), "average percent inhibition" is calculated as follows: [formula] wherein "ASWNC" designates "average spleen weight of negative control"; "ASWE" designates "average spleen weight of experimental (treated) subject"; and "ASWPC" designates "average spleen weight of positive control". Average spleen weight is the numerical average of spleen weights of each experimental group (in Table II each such group includes two members).
The AAB compounds whose synthesis is described above were assayed for antiviral activity. WIS-2, -3, -4, -5 and -6 were tested to determine their biological effects on Friend Virus-induced splenomegaly using the procedure and technique set forth in Example 1 above. The assay results (three mice per group were tested each at different concentrationss of the active composition except for the PBS-negative control wherein two animals per group were used) are reported in Table VII below.

[3] = Stability to light and pH; assay type: physicochemical; details: irradiation / exposure to light
[4] = tested on: Friend Leukemia Virus; experiment: In vivo inhibition of Friend Leukemia Virus splenomegaly, intravenous 1-2 hours post infection (Example 10); set-up: species or system mice; details: Mus musculus, read-out: EC50 for FV-induced splenomegaly
Protocol: (3) In vivo inhibition of Friend Leukemia Virus Splenomegaly performed as described in Example 1 above except that the compounds were administered intravenously 1-2 hours post infection.
(§3) The results presented above in Table IX are presented as EC50 concentrations. These are the effective concentrations which inhibit 50% of the viruses in micromolar concentrations.

[5] = tested on: retroviruses (virions); experiment: Direct inactivation of retroviruses (virions) in vitro (Example 10); assay type: biochemical, Radiation Leukemia Virus; details: Table IX
Protocol: as §1, §2
(1) Direct inactivation of retroviruses in vitro, performed as in Example 3 above;
as §3

[6] = molecular target: T1, Radiation Leukemia Virus reverse transcriptase; experiment: Reverse transcriptase assay of Radiation Leukemia Virus from B10.T(6R) cell supernatants (Example 3); assay type: biochemical; details: for Average CPM / CPM / Average percent inhibition: Table V; for CPM: replicate
Protocol: as §1, §2
The reverse transcriptase assay provides a measure of the antiviral activity of the compounds tested by reference to the observed decrease in activity of this enzyme.
In Table V, "CPM" is "counts per minute", "Average" is the numerical average of CPM values within each group of animals.

In the case of `O=c1c2ccccc2c2c3c1c(O)cc(O)c3c1c(O)cc(O)c3c(=O)c4ccccc4c2c31` [WIS-2, Tetrahydroxy-dibenzoperylene-dione], the inhibition at 50 ng ([1]; 0.05 micrograms) is reported as 41.6%, the inhibition at 0.0001 mg ([1]; 0.1 micrograms) is reported as 70.8% and the inhibition at 0.0005 mg ([1]; 0.5 micrograms) is reported as 98.1%. The inhibition at 0.001 mg ([1]; 1 microgram) was 98.7%, the inhibition at 0.002 mg ([1]; 2 micrograms) was 99.5% and the inhibition at 0.005 mg ([1]; 5 micrograms) was 99.5%. For the same compound, the inhibition at 0.01 mg ([1]; 10 micrograms, read-out: Average % Inhibition) was 99.5%, the “Average % Inhibition” value ([2]; 1 microgram) was 53.9% and the “Average Spleen Weight” value ([2]; 1 microgram) was 0.7015. The “Actual Spleen Weight” value ([2]; 1 microgram) was 0.6615 and 0.7519 and 0.6912, the “Average % Inhibition” value ([2]; 10 micrograms) was 62.7% and the “Average Spleen Weight” value ([2]; 10 micrograms) was 0.4701. For the same compound, the “Actual Spleen Weight” value ([2]; 10 micrograms) was 0.4263 and 0.4868 and 0.4972, the “Average % Inhibition” value ([2]; 50 micrograms) was 64.0% and the “Average Spleen Weight” value ([2]; 50 micrograms) was 0.4603. For the same compound, the “Actual Spleen Weight” value ([2]; 50 micrograms) was 0.4818 and 0.4925 and 0.4066, the “Average % Inhibition” value ([2]; 150 micrograms) was 66.3% and the “Average Spleen Weight” value ([2]; 150 micrograms) was 0.4416. For the same compound, the “Actual Spleen Weight” value ([2]; 150 micrograms) was 0.4075 and 0.4656 and 0.4517 and the “stability to light” value [3] was “did not change upon irradiation”.
For `Cc1cc(O)c2c(=O)c3c(O)cc(O)c4c5c(O)cc(O)c6c(=O)c7c(O)cc(C)cc7c(c65)c(c2c1)c34` [protohypericin, Protohypericin], the EC50 [4] was 98 µM, the EC50 [5] was 7.9 µM and the “Average CPM” value ([6]; 0.05 micrograms) was 309,103 CPM. For the same compound, the CPM ([6]; 0.05 micrograms) was 310,952 CPM and 307,254 CPM, the “Average CPM” value ([6]; 0.1 micrograms) was 261,083 CPM and the CPM ([6]; 0.1 micrograms) was 216,824 CPM and 305,342 CPM. For the same compound, the “Average CPM” value ([6]; 0.5 micrograms) was 257,879 CPM, the CPM ([6]; 0.5 micrograms) was 264,710 CPM and 251,048 CPM and the “Average CPM” value ([6]; 1 microgram) was 227,614 CPM. For the same compound, the CPM ([6]; 1 microgram) was 192,184 CPM and 263,044 CPM, the “Average CPM” value ([6]; 5 micrograms) was 12,633 CPM and the Average percent inhibition ([6]; 5 micrograms) was 94.0%. For the same compound, the CPM ([6]; 5 micrograms) was 12,358 CPM and 12,908 CPM, the “Average CPM” value ([6]; 10 micrograms) was 185,539 CPM and the Average percent inhibition ([6]; 10 micrograms) was 11.3%. The CPM ([6]; 10 micrograms) was 202,656 CPM and 168,422 CPM, the “Average CPM” value ([6]; 50 micrograms) was 71,641 CPM and the Average percent inhibition ([6]; 50 micrograms) was 65.8%. The CPM ([6]; 50 micrograms) was 75,816 CPM and 67,466 CPM, the “Average CPM” value ([6]; 100 micrograms) was 10,281 CPM and the Average percent inhibition ([6]; 100 micrograms) was 95.1%. The CPM ([6]; 100 micrograms) was 8,818 CPM and 11,744 CPM, the “inhibition of RadLV reverse transcriptase activity” value ([6]; Example 3) was “significantly inhibited the reverse transcriptase activity of RadLV” and the “concentration required relative to hypericin for the same degree of RT inhibition” value ([6]; RadLV, vs hypericin) was 10 to 100 fold. For the same compound, the “stability to light” value [3] was “converts to hypericin upon exposure to light”.
